The values below come from US12306176B2, “Microfluidic bi-directional migration assay” (Ohio State Innovation Foundation, priority 2017, dated 2025).

The test system of experiment [1] is lactate dehydrogenase (LDH). Briefly: LDH activity colorimetric kinetic assay. Type of experiment: cell-based, human. The following applies: EGF 25 ng/mL, 12 hours; not significant. The text has this:
To investigate whether iEF has an effect on metabolic function of MDA-MB-231 cells, the activity levels of lactate dehydrogenase (LDH) and succinate dehydrogenase (SDH) were examined. LDH is an enzyme that catalyzes the interconversion of pyruvate to lactate as part of the glycolysis chain (Pelicano H, et al. (2006) Oncogene 25 (34):4633). SDH is an enzyme within Complex II of the mitochondria that is utilized in both the tricarboxylic acid (TCA) cycle as well as oxidative phosphorylation (OXPHOS) (Gottlieb E & Tomlinson IP (2005) Nat Rev Cancer. 5 (11):857). As part of the TCA cycle, SDH catalyzes the oxidation of succinate to fumarate, and as part of OXPHOS, SDH transfers two electrons from flavin adenine dinucleotide into the electron transport chain (Gottlieb E & Tomlinson IP (2005) Nat Rev Cancer. 5 (11):857). To determine whether LDH or SDH activity levels were changing, colorimetric kinetic assays were employed. […]
1×10^6 cells/well were plated in 6 well plates in growth media for 12 hours followed by migration media (0.1% FBS) for an additional 12 hours. […] The LDH activity assay kit (Sigma-Aldrich, MAK066) and the SDH activity colorimetric assay kit (Sigma-Aldrich, MAK197) were used to quantify LDH and SDH activity respectively. […] For quantification of LDH and SDH, the protocols provided by the supplier were followed. […]

A further experiment relates to EGFR. The experiment is described as follows: Western blot of EGFR phosphorylation (Tyr-1068). Type of experiment: cell-based, human. The following applies: EGF 25 ng/mL, absence of iEFs, 12 hours. Here is the method: For these experiments, 1×10^6 cells/well were plated in 6-well plates in growth media for 12 hours followed by migration media for another 12 hours. Fresh migration media was added to the top three wells in each plate (1, 2, 3) while EGF (25 ng/mL) and supplemental migration media were added to the bottom three wells (4, 5, 6). One of the cell-containing 6-well plates was then treated with iEFs for 12 hours. Immediately after treatment, the plates were placed on ice and each well was then washed three times with 1× tris-buffered saline (TBS, Corning Inc.) solution. TBS was aspirated out and 1 mL ice-cold radioimmunoprecipitation assay (RIPA) buffer, supplemented with a protease inhibitor and a phosphatase inhibitor, was added to each well. Cells were scraped out using a cold plastic cell scraper and the cell suspension was transferred into a pre-cooled microcentrifuge tube. The cell suspension was then spun at 16000 g for 20 minutes in a 4° C. precooled centrifuge. The centrifuge tubes were placed on ice and the supernatants were transferred to fresh tubes and kept on ice. The pellet at the bottom of each microcentrifuge tube was discarded. Protein in each tube was estimated against a standard bovine serum albumin (BSA) solution (1.42 mg/mL) using the DCTM Protein Assay Kit II (Bio-Rad, 500-0112). […]
On the technique in general: A western blot detects proteins with antibodies after separation by electrophoresis.

For the substance epidermal growth factor [EGF], in experiment [1], the “change of LDH activity from control” value is listed as less than 6%. Further, the EGFR phosphorylation entry with EGFR is “resulted in EGFR phosphorylation”.
